{"source": "patent US8722897B2", "about": "“Metal complexes of thiourea and derivatives as metal delivering anti-cancer and anti-inflammatory agents” (priority 2010, dated 2014)", "key": {"[1]": {"molecular_target": "T1, Glutathione reductase (GR) (Homo sapiens, UniProt P00390)", "T1 construct": "endogenous in cells; host or cells: HeLa", "T1 sequence (P00390 44-522)": "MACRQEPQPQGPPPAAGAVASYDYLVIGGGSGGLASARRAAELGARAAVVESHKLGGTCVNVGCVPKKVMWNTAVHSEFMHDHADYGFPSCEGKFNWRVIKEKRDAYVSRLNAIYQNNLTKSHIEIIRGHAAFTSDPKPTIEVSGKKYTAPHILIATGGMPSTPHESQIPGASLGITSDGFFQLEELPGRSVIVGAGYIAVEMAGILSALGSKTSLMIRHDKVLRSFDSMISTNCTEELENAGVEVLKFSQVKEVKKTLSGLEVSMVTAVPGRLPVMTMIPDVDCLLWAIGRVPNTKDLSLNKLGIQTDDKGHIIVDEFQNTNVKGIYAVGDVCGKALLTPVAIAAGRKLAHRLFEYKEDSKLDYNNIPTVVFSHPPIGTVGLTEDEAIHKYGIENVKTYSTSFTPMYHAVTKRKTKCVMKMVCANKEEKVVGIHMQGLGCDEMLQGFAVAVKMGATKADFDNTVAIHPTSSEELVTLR", "assay": "Cellular glutathione reductase activity of treated HeLa cells", "format": "cell-based", "details": "one-hour treatment", "procedure": "Cells were seeded at 2×10^5/well in 6-well plates and incubated for 24 hours. The metal thiourea compounds (10^−9 to 10^−4 M) were serially diluted and added to the cells (final DMSO concentrations≦1%). After an one-hour incubation, cells were washed thrice with phosphate buffered saline and 100 μL ice-cold lysis buffer (50 mM phosphate buffer, pH 7.4, 1 mM EDTA, 0.1% Triton-X 100) were added to the cell layer. Cell lysis was carried on ice for 5 minutes and the cell lysates were collected and stored at −80° C. or assayed immediately.\nCell lysates (10 μg proteins) were added to a mixture containing 100 mM phosphate, pH 7.4, 1 mM EDTA, 1 mM GSSG and 0.2 mM NADPH. Reaction was initiated by adding DTNB (3 mM final) and the increases in O.D.412 nm were measured for 10 min. GR activities were determined by subtracting the increases in O.D.412 nm in the absence of GSSG."}, "[2]": {"molecular_target": "T2, TrxR1 (Rattus norvegicus, UniProt O89049)", "T2 sequence (O89049 1-499)": "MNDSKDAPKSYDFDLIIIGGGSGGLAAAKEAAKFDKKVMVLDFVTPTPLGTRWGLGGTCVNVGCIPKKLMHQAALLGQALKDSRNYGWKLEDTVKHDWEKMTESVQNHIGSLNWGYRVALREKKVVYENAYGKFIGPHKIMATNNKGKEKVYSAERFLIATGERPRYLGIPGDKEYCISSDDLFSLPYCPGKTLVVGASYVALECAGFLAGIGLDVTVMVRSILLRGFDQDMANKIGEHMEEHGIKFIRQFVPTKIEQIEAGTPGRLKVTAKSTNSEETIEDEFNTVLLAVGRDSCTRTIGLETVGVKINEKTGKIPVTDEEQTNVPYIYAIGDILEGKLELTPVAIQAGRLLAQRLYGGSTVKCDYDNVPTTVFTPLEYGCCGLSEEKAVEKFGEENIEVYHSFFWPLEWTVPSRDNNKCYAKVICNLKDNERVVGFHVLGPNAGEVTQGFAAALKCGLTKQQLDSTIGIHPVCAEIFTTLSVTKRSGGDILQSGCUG", "assay": "In vitro TrxR enzyme assay, with or without NADPH pre-reduction", "format": "biochemical", "procedure": "A plot of the kapp against the inhibitor concentrations followed a hyperbolic function (FIG. 8B). This is indicative of a two-step, tight-binding inhibition mechanism: […] DTNB (3 mM) and NADPH (0.2 mM) was then added. The TrxR1 activities were determined as the increases in O.D.412 nm over 10 min."}, "[3]": {"molecular_target": "T2, TrxR1", "assay": "biochemical", "details": "for Ki: progress curve analysis", "procedure": "This was further studied by progress curve analysis (FIG. 8). ^24, 25 1 was added in excess (3-100 nM) to a reaction mixture containing 0.2 mM NADPH, 1 nM TrxR and 3 mM disulfide substrate 5,5′-dithiobis(2-nitrobenzoic acid) (DTNB) in phosphate buffer (pH 7.4). […] This was analyzed using Eq. 1 (Example 6), where P is the product concentration, vi and vf are the initial and final steady-state velocities, respectively, and kapp is the apparent first-order rate constant for establishment of the final steady-state inhibition. A plot of the kapp against the inhibitor concentrations followed a hyperbolic function (FIG. 8B). This is indicative of a two-step, tight-binding inhibition mechanism:\n[formula] where EI is the initial collision complex, k3 is the forward isomerization rate, and k4 is the reverse isomerization rate. In this scheme, binding involves rapid formation of an initial collision complex (EI) that subsequently undergoes isomerization to the final slow dissociating enzyme-inhibitor complex (EI*). The k3, k4 and the dissociation constant of the initial collision complex EI (Ki′) can be obtained by fitting the data to Eq. 2.\n1 was added in excess (3-100 nM) to a reaction mixture containing 0.2 mM NADPH, 1 nM TrxR1, 3 mM disulfide substrate 5,5′-dithiobis(2-nitrobenzoic acid) (DTNB), 100 mM phosphate buffer, pH 7.4 and 1 mM EDTA. The progress curves are non-linear, showing two-phase equilibria typical of slow-onset tight-binding inhibition. The data was fit into Eq. 1 using GraphPad Prism 3.0 software, P=vft+((vi−vf/kapp)(1−e^−kappt) (1) where P is the product concentration, vi and vf are the initial and final steady-state velocities, respectively, and kapp is the apparent first-order rate constant for establishment of the final steady-state inhibition. A plot of the kapp against the inhibitor concentrations followed a hyperbolic function (FIG. 8B). This is indicative of a two-step, tight-binding inhibition mechanism:\n[formula] where EI is the initial collision complex, k3 is the forward isomerization rate, and k4 is the reverse isomerization rate. […]"}, "[4]": {"assay": "Cytotoxicity assay (MTT), SUNE1", "details": "human, SUNE1 cells", "experimental": "(§1) Cells were seeded in a 96-well flat-bottomed microplate at 20,000 cells/well in 150 μL of growth medium solution. The compounds were dissolved in dimethyl sulfoxide. Serial dilution of each complex was added to each well with final concentration of DMSO≦1%. The microplate was incubated at 37° C., 5% CO2, 95% air in a humidified incubator for 72 h. After incubation, 10 μL MTT reagent (5 mg/mL) was added to each well. The microplate was re-incubated at 37° C. in 5% CO2 for 4 h. Solubilization solution (10% SDS in 0.01 M HCl) (100 μL) was added to each well. The microplate was left in an incubator for 24 h. Absorbances at 550 nm were measured by a microplate reader."}, "[5]": {"assay": "Cytotoxicity assay (MTT), NCI-H460", "details": "human, NCI-H460 cells", "experimental": "as §1"}}}
{"smiles": "COc1ccc(N2CCN(c3ccc(OC)cc3)C2=[S+][Au-][S+]=C2N(c3ccc(OC)cc3)CCN2c2ccc(OC)cc2)cc1", "note": "[complex 1, [Au(TU)2]Cl]", "values": [{"measurement": "effect on cellular GR activity", "setting": "[1]", "value": "not affected"}, {"measurement": "concentration for half maximal inhibition of TrxR", "setting": "[2]; TrxR 1 nM", "value": "approximately equal molar concentration"}, {"measurement": "inhibition of NADPH reduced TrxR compared with oxidized TrxR", "setting": "[2]; with or without 0.2 mM NADPH pre-reduction", "value": "much more efficiently inhibited"}, {"measurement": "recovery of enzyme activities after removal of the free inhibitors by ultrafiltration", "setting": "[3]", "value": "could not be recovered"}, {"measurement": "Ki", "setting": "[3]; dissociation constant of the initial collision complex EI (Ki′)", "value": 1.39, "unit": "nM"}, {"measurement": "Ki", "setting": "[3]; overall inhibitory constant Ki*, Eq. 3", "value": 0.018, "unit": "nM"}, {"measurement": "IC50 at 72 h", "setting": "[4]", "value": "10800 ± 200", "unit": "nM"}, {"measurement": "IC50 at 72 h", "setting": "[5]", "value": "3720 ± 300", "unit": "nM"}]}
